Measured values as given in patent US8771973B2, “Methods for treating bleeding disorders using sulfated polysaccharides” (Baxter Healthcare S.A., priority 2004, dated 2014).
Entries after “also recorded” stand apart in the source; their conditions may differ.

Tests used:
[1] = system: Hem-A plasma; assay: dPT assay, Hem-A plasma in absence of exogenous TFPI; type: biochemical, human; details: dPT
Method: (§1) The dPT assay used was a modified standard clinical PT assay (Nordfang et al. (1991) Thromb Haemost 66:464-467; Welsch et al. (1991) Thrombosis Research 64: 213-222). SIMPLASTIN EXCEL thromboplastin reagent (Organon Teknika) was reconstituted with the manufacturer's diluent and further diluted 1:100 in 0.9% saline. The thromboplastin reagent, 25 mM CaCl2, and plasma samples were pre-warmed to 37° C. before initiating the assay. 100 μl of thawed plasma was aliquoted into microcentrifuge tubes. […] 100 μl of the diluted thromboplastin reagent and 100 μl of 25 mM CaCl2 were added to fibrin cups (Fisher) prewarmed to 37° C. 100 μl of plasma (normal or hemophilic) containing the test agent or saline control was added to the fibrin cups containing the thromboplastin reagent and CaCl2 to initiate clotting. The time for plasma clotting was measured with a BBL FIBROSYSTEM fibrometer.
The ability of NASPs to accelerate clotting of factor-deficient plasma in the absence of TFPI supplementation was also tested in dPT assays. A procoagulant response, if observed, may be related to neutralization of endogenous TFPI activity, which is present in human plasma at approximately 100 ng/ml (Nordfang et al., supra), largely associated with lipoprotein or platelets (Broze et al. (1992) Semin. Hematol. 29:159-169; Broze et al. (2003) J. Thromb. Haemost. 1:1671-1675).
The ability of NASPs to accelerate clotting of Hem-A plasma in the absence of exogenous TFPI was tested. Fucoidan or PPS were titrated into Hem A plasma and dPT assays were performed. Additionally, the dose-response to factor VIIa was analyzed as a positive control for amplifying extrinsic pathway activation.

[2] = system: Hem-A plasma; assay: dPT assay, anti-coagulant activity of NASPs in Hem-A plasma; type: biochemical, human; details: for clotting time, dPT: Hem-A plasma without NASP 41.5 seconds; for inherent anticoagulant activity: concentrations up to 5000 nM; for prolongation of clotting time: concentrations>5000 nM
Method: as §1
Test compounds were diluted to 100 μM, 10 μM, 2 μM and 200 nM. For each test compound, 12.5 μl of a diluted solution containing the test compound was added to 237.5 μl of Hem-A plasma and incubated at room temperature. 100 μl of plasma containing the test compound was removed for dPT assays of plasma clotting time as described in Example 2.

[3] = target: T1, TFPI (Homo sapiens, UniProt P10646); assay: dPT assay, inhibition of TFPI activity in Hem-A plasma, TFPI preincubated with NASP; type: biochemical; details: for TFPI-neutralizing activity: FIGS. 4-6 / data not shown; for clotting time, dPT: Hem-A + TFPI, plasma alone 44, + TFPI 151 seconds
T1 construct: purchased American Diagnostica (Stamford, Conn.)
T1 sequence (P10646 29-304): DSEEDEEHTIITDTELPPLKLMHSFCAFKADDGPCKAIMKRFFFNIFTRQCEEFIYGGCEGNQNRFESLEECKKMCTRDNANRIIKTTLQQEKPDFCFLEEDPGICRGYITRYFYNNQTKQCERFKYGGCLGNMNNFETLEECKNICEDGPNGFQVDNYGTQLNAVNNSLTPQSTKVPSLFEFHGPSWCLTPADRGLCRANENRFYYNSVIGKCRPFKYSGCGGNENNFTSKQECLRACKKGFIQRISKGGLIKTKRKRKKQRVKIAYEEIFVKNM
Method: as §1
(§2) Inhibition of TFPI activity by NASPs was assessed in dPT clotting assays with normal or hemophilic plasma and added recombinant TFPI. Diluted recombinant TFPI was preincubated with NASPs for 5 minutes at room temperature before plasma was added. After addition of plasma, the mixture was incubated for an additional 25 minutes followed by dPT initiation.

[4] = target: T1, TFPI; assay: dPT assay, inhibition of TFPI activity in Hem-A plasma without preincubation; type: biochemical; details: for clotting time, dPT: Hem-A + TFPI, no preincubation, HemA + TFPI 183, alone 45 seconds
Method: as §1
Experiments were repeated without a preincubation of the sulfated polysaccharides with TFPI prior to exposure to plasma. To extend the stringency of the test for NASP inhibition of TFPI activity, TFPI was added to the plasma before the NASP was added.

[5] = system: Hem-A plasma containing 1.25% FACT plasma; assay: aPTT assay, NASPs in 1.25% FACT diluted in Hem-A plasma; type: biochemical, human
Method: Activated Partial Thromboplastin Time (aPTT) Assay The aPTT assay was performed as described previously with modifications (PDR Staff Physicians' Desk Reference. 2004, Anderson Lo, Barrowcliffe, T. W., Holmer, E., Johnson, E. A., Sims, G. E. C. Thromb. Res. 1976; 9:575-580). 25 mM CaCl2 and fibrin cups (Fisher) were pre-warmed to 37° C. 0.1 ml of thawed human plasma (normal or hemophilic) was added to warmed test tubes. 5 μl of saline (e.g. Sigma) or 5 μl of test agent (e.g., NASP) dissolved in saline was incubated with 95 μl of plasma for 30 minutes at room temperature. APTT reagent (e.g. Organon Teknika) was reconstituted in 3 ml distilled water and 0.1 ml of the reconstituted solution containing the APTT reagent was added to each test tube. 0.2 ml of plasma containing the test agent or saline control and aPTT reagent were transferred from test tubes to pre-warmed fibrin cups and incubated for 2-3 minutes. 0.1 ml of pre-warmed 25 mM CaCl2 was added to initiate clotting, and the time for plasma clotting was measured with a BBL FIBROSYSTEM fibrometer.
The effect of NASPs on the clotting time of plasma was determined as follows: 5 μl of a NASP was added to 95 μl of 1.25% FACT diluted in human Hem-A plasma and incubated at room temperature for 30 minutes. aPTT assays were performed to determine plasma clotting time as described in Example 1.

[6] = target: T1, TFPI; assay: dPT assay, inhibition of TFPI activity in Hem-B plasma, TFPI preincubated with NASP; type: biochemical; details: for clotting time, dPT: Hem-B + TFPI, plasma alone 46, + TFPI 101 seconds
Method: as §1, §2
The acceleration of plasma clotting by the NASPs in the presence of TFPI was also tested in Hem-B and normal plasma.

[7] = system: Hem-A plasma; assay: dPT assay, TFPI titrated into FVIII deficient (Hem-A) plasma; type: biochemical, human
Method: as §1
A 100 μg/mL TFPI stock solution (American Diagnostica, Stamford, Conn.) was sequentially diluted in saline to generate TFPI solutions at the following concentrations: 20, 15, 10, 6, and 2 μg/mL. 5 μl of these TFPI dilutions were mixed with 95 μl of FVIII deficient plasma and incubated at room temperature for 30 minutes. dPT assays were performed as follows: SIMPLASTIN thromboplastin was diluted 1:100 in saline and prewarmed to 37° C. 25 mM CaCl2 and 100 μl of test plasma containing TFPI was prewarmed to 37° C. 100 μl SIMPLASTIN thromboplastin and 100 μl of CaCl2 were mixed and clotting time was measured using a BBL fibrometer.

| Substance | acceleration of hemophilic plasma clotting in the absence of TFPI addition [1] | clotting time, dPT ([2]; 10 nM) [s] | clotting time, dPT ([2]; 100 nM) [s] | clotting time, dPT ([2]; 500 nM) [s] | clotting time, dPT ([2]; 5000 nM) [s] | inherent anticoagulant activity [2] | TFPI-neutralizing activity ([3]; dPT) | prolongation of clotting time ([2]; dPT) | clotting time, aPTT ([5]; 0.8 nM) [s] | clotting time, aPTT ([5]; 4 nM) [s] | clotting time, aPTT ([5]; 20 nM) [s] | clotting time, aPTT ([5]; 100 nM) | clotting time, aPTT ([5]; 500 nM) | further results |
| --- | --- | --- | --- | --- | --- | --- | --- | --- | --- | --- | --- | --- | --- | --- |
| De-N-Sulfated-Acetylated-Heparin [De-N—S-AH] | failed to accelerate clotting times | 39 | 37 | 40 | 55 | failed to show inherent anticoagulant activity | did not exhibit any TFPI-neutralizing activity | – | – | – | – | – | – | – |
| N-Acetyl-de-O-Sulfated-Heparin [NA-de-O-SH] | failed to accelerate clotting times | 40 | 40 | 40 | 40 | failed to show inherent anticoagulant activity | did not exhibit any TFPI-neutralizing activity | little or no prolongation of clotting time | – | – | – | – | – | – |
| N-Acetyl-Heparin [NAH] | had no activity; also recorded: did not accelerate hemophilic plasma clotting times | 38 | 37 | 36 | 38 | – | only weak TFPI-neutralizing activity | little or no prolongation of clotting time | 70 | 69 | 67 | 74 s | 85 s | clotting time, dPT ([4]; 0.8 nM): 165 s; clotting time, dPT ([4]; 4 nM): 180 s; clotting time, dPT ([4]; 20 nM): 184 s; clotting time, dPT ([4]; 100 nM): 125 s; clotting time, dPT ([4]; 500 nM): 89 s; concentration producing approximately 50% prolongation in clotting time, fold higher than for heparin ([5]; APTT, Hem-A plasma): > 500 fold; clotting time, dPT ([3]; 0.16 nM, preincubation): 144 s; clotting time, dPT ([3]; 0.8 nM, preincubation): 158 s; clotting time, dPT ([3]; 4 nM, preincubation): 160 s; clotting time, dPT ([3]; 20 nM, preincubation): 141 s; clotting time, dPT ([3]; 100 nM, preincubation): 99 s; clotting time, dPT ([3]; 500 nM, preincubation): 84 s; concentration that accelerates (shortens) clotting of Hem-A plasma containing TFPI ([3]; dPT, preincubation): approximately 100 nM; clotting time, dPT ([6]; 0.16 nM): 102 s; clotting time, dPT ([6]; 0.8 nM): 101 s; clotting time, dPT ([6]; 4 nM): 106 s; clotting time, dPT ([6]; 20 nM): 106 s; clotting time, dPT ([6]; 100 nM): 94 s; clotting time, dPT ([6]; 500 nM): 68 s |
| Sodium Heparin | – | 40 | 92 | 400 | – | – | – | – | 70 | 70 | 200 | Not clotted | Not clotted | anticoagulant activity ([2]; dPT, concentrations exceeding 10 nM): markedly anticoagulant; effect on clotting time of Hem-A plasma containing TFPI ([3]; dPT, not shown): only prolonged clotting times |
| De-N-Sulfated-Heparin [De-N-SH] | failed to accelerate clotting times | 40 | 38 | 38 | 41 | failed to show inherent anticoagulant activity | did not exhibit any TFPI-neutralizing activity | little or no prolongation of clotting time | – | – | – | – | – | – |
| TFPI: human recombinant TFPI from American Diagnostica | – | – | – | – | – | – | – | – | – | – | – | – | – | Clotting time HemA + TFPI ([4]; no NASP, Hem-A alone 45 seconds): HemA + TFPI: 183 seconds; Clotting time ([7]; TFPI 0.1 μg/mL in plasma): 60 s; Clotting time ([7]; TFPI 0.3 μg/mL in plasma): 94 s; Clotting time ([7]; TFPI 0.5 μg/mL in plasma): 98 s; Clotting time ([7]; TFPI 0.75 μg/mL in plasma): 173 s; Clotting time ([7]; TFPI 1 μg/mL in plasma): >200 s; clotting time of plasma with TFPI ([3]; TFPI approximately 0.5 μg/ml, from approximately 40 seconds, depending on experiment and source of plasma): 100 to 200 s; Clotting time of Hem-A plasma + TFPI ([3]; no NASP, TFPI approximately 0.5 μg/ml, plasma alone 44 seconds): Clotting time of Hem-A plasma + TFPI is 151 seconds.; Clotting time of Hem-B + TFPI ([6]; no NASP, Hem-B alone 46 seconds): Clotting time of Hem-B + TFPI: 101 seconds. |
